Assay results reported in PubChem BioAssay (NCI).
Values joined by “and” are separate entries in the source; they are usually repeats but may differ in a detail not shown here. Equal values may be shown once.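 1) Cells in 96-well plates. 2) Compound, 48 h, 5 concentrations. 3) Linear interpolation between surrounding doses. 4) Unreached endpoint = highest concentration. The concentration for 50% growth inhibition is given as GI50. TGI marks complete inhibition of growth.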 Where a SMILES comes first, the peptide text is derived from it. [ ]: non-standard residue; d: D form. The star is where a group is joined. Dolaproine = CO[C@@H]([C@@H]1CCCN1)[C@@H](C)C(=O)O; Dil = CC[C@H](C)[C@H](NC)[C@@H](CC(=O)O)OC; X2 = C[C@@H](N*)[C@@H](O)c1ccccc1; NMeV = CN[C@H](C(=O)O)C(C)C

How the values were obtained:
Assay in all cases: NCI tumour cell line growth inhibition, 48 h
COLO 205 colon = test system: COLO 205 colon
UACC-62 melanoma = test system: UACC-62 melanoma
MOLT-4 leukemia = test system: MOLT-4 leukemia
HCT-116 colon = test system: HCT-116 colon
NCI-H226 lung = test system: NCI-H226 lung
M14 melanoma = test system: M14 melanoma
NCI-H522 lung = test system: NCI-H522 lung
IGROV1 ovarian = test system: IGROV1 ovarian
SW-620 colon = test system: SW-620 colon
K-562 leukemia = test system: K-562 leukemia
SK-MEL-2 melanoma = test system: SK-MEL-2 melanoma
DU-145 prostate = test system: DU-145 prostate
OVCAR-8 ovarian = test system: OVCAR-8 ovarian
CAKI-1 renal = test system: CAKI-1 renal
HOP-62 NSCLC = test system: HOP-62 NSCLC
HOP-92 NSCLC = test system: HOP-92 NSCLC
A498 renal = test system: A498 renal
HS 578T breast = test system: HS 578T breast
RPMI-8226 leukemia = test system: RPMI-8226 leukemia
SK-MEL-5 melanoma = test system: SK-MEL-5 melanoma
U251 CNS = test system: U251 CNS
786-0 renal = test system: 786-0 renal
SF-539 CNS = test system: SF-539 CNS
OVCAR-4 ovarian = test system: OVCAR-4 ovarian
TK-10 renal = test system: TK-10 renal
MDA-MB-435 = test system: MDA-MB-435
SK-OV-3 ovarian = test system: SK-OV-3 ovarian
MDA-MB-231 breast = test system: MDA-MB-231 breast
KM12 colon = test system: KM12 colon
LOX IMVI melanoma = test system: LOX IMVI melanoma
A549 NSCLC = test system: A549 NSCLC
HT29 colon = test system: HT29 colon
BT-549 breast = test system: BT-549 breast
NCI-H460 lung = test system: NCI-H460 lung
OVCAR-3 ovarian = test system: OVCAR-3 ovarian
NCI/ADR-RES ovarian = test system: NCI/ADR-RES ovarian
EKVX NSCLC = test system: EKVX NSCLC
PC-3 prostate = test system: PC-3 prostate
SNB-19 CNS = test system: SNB-19 CNS
ACHN renal = test system: ACHN renal
UACC-257 melanoma = test system: UACC-257 melanoma
SF-295 CNS = test system: SF-295 CNS
HCC-2998 colon = test system: HCC-2998 colon
OVCAR-5 ovarian = test system: OVCAR-5 ovarian
SF-268 CNS = test system: SF-268 CNS
HCT-15 colon = test system: HCT-15 colon
CCRF-CEM leukemia = test system: CCRF-CEM leukemia
UO-31 renal = test system: UO-31 renal
MCF7 breast = test system: MCF7 breast
NCI-H23 lung = test system: NCI-H23 lung
HL-60(TB) leukemia = test system: HL-60(TB) leukemia
SN12C renal = test system: SN12C renal
MALME-3M melanoma = test system: MALME-3M melanoma
SR leukemia = test system: SR leukemia
SNB-75 CNS = test system: SNB-75 CNS
SK-MEL-28 melanoma = test system: SK-MEL-28 melanoma
T-47D breast = test system: T-47D breast

CC[C@H](C)[C@@H]([C@@H](CC(=O)N1CCC[C@H]1[C@H](OC)[C@@H](C)C(=O)N[C@H](C)[C@@H](O)c1ccccc1)OC)N(C)C(=O)[C@@H](NC(=O)[C@@H](NC)C(C)C)C(C)C (H-[NMeV]V[Dil][Dolaproine]-X2)
GI50 (COLO 205 colon): < 0.005 µM | TGI (COLO 205 colon): < 0.005 µM | GI50 (UACC-62 melanoma): < 0.005 µM | TGI (UACC-62 melanoma): > 100 µM | GI50 (MOLT-4 leukemia): < 0.005 µM | TGI (MOLT-4 leukemia): > 100 µM | GI50 (HCT-116 colon): < 0.01 µM | TGI (HCT-116 colon): > 100 µM | GI50 (NCI-H226 lung): 0.0179 µM and < 0.0156 µM | TGI (NCI-H226 lung): > 50 µM | GI50 (M14 melanoma): < 0.005 µM | TGI (M14 melanoma): 0.00705 µM | GI50 (NCI-H522 lung): < 0.005 µM | TGI (NCI-H522 lung): 0.0122 µM and < 0.01 µM | GI50 (IGROV1 ovarian): 0.00831 µM and < 0.01 µM | TGI (IGROV1 ovarian): > 100 µM | GI50 (SW-620 colon): < 0.005 µM | TGI (SW-620 colon): > 100 µM | GI50 (K-562 leukemia): < 0.005 µM | TGI (K-562 leukemia): > 100 µM | GI50 (SK-MEL-2 melanoma): < 0.005 µM | TGI (SK-MEL-2 melanoma): > 100 µM | GI50 (DU-145 prostate): < 0.005 µM | TGI (DU-145 prostate): > 100 µM | GI50 (OVCAR-8 ovarian): 0.00764 µM and < 0.01 µM | TGI (OVCAR-8 ovarian): > 50 µM | GI50 (CAKI-1 renal): < 0.01 µM | TGI (CAKI-1 renal): > 94.8 µM | GI50 (HOP-62 NSCLC): < 0.005 µM | TGI (HOP-62 NSCLC): > 100 µM | TGI (HOP-92 NSCLC): > 100 µM | GI50 (A498 renal): 0.00518 µM | TGI (A498 renal): 0.387 µM | GI50 (HS 578T breast): 0.0101 µM and < 0.01 µM | TGI (HS 578T breast): > 100 µM | GI50 (RPMI-8226 leukemia): < 0.005 µM | TGI (RPMI-8226 leukemia): > 100 µM | GI50 (SK-MEL-5 melanoma): < 0.005 µM | TGI (SK-MEL-5 melanoma): 0.0505 µM and 0.0772 µM | GI50 (U251 CNS): < 0.005 µM | TGI (U251 CNS): > 100 µM | GI50 (786-0 renal): 0.00646 µM and < 0.01 µM | TGI (786-0 renal): > 100 µM | GI50 (SF-539 CNS): < 0.005 µM | TGI (SF-539 CNS): 0.0128 µM and < 0.0107 µM | TGI (OVCAR-4 ovarian): > 100 µM | GI50 (TK-10 renal): > 100 µM | TGI (TK-10 renal): > 100 µM | GI50 (MDA-MB-435): < 0.005 µM | TGI (MDA-MB-435): < 0.005 µM | GI50 (SK-OV-3 ovarian): < 0.005 µM | TGI (SK-OV-3 ovarian): > 100 µM | GI50 (MDA-MB-231 breast): < 0.005 µM | TGI (MDA-MB-231 breast): > 13.1 µM and 1.84 µM | GI50 (KM12 colon): < 0.005 µM | TGI (KM12 colon): > 100 µM | GI50 (LOX IMVI melanoma): < 0.005 µM | TGI (LOX IMVI melanoma): > 100 µM | GI50 (A549 NSCLC): < 0.005 µM | TGI (A549 NSCLC): > 100 µM | GI50 (HT29 colon): < 0.005 µM | TGI (HT29 colon): 0.154 µM | GI50 (BT-549 breast): < 0.005 µM and 0.0141 µM | TGI (BT-549 breast): 0.0507 µM and 0.0821 µM | GI50 (NCI-H460 lung): < 0.005 µM | TGI (NCI-H460 lung): > 100 µM | GI50 (OVCAR-3 ovarian): < 0.01 µM | TGI (OVCAR-3 ovarian): 0.651 µM | GI50 (NCI/ADR-RES ovarian): 0.169 µM and 0.118 µM | TGI (NCI/ADR-RES ovarian): > 50 µM and 9.41 µM | GI50 (EKVX NSCLC): 0.00692 µM and < 0.01 µM | TGI (EKVX NSCLC): > 100 µM | GI50 (PC-3 prostate): < 0.005 µM | TGI (PC-3 prostate): > 100 µM | GI50 (SNB-19 CNS): < 0.005 µM | TGI (SNB-19 CNS): > 100 µM | GI50 (ACHN renal): 0.024 µM and 0.0202 µM | TGI (ACHN renal): > 100 µM | TGI (UACC-257 melanoma): > 100 µM | GI50 (SF-295 CNS): < 0.005 µM | TGI (SF-295 CNS): > 100 µM | GI50 (HCC-2998 colon): < 0.005 µM | TGI (HCC-2998 colon): > 100 µM | GI50 (OVCAR-5 ovarian): < 0.005 µM | TGI (OVCAR-5 ovarian): > 100 µM | GI50 (SF-268 CNS): 0.00638 µM and < 0.0108 µM | TGI (SF-268 CNS): > 100 µM | GI50 (HCT-15 colon): 0.0444 µM and 0.0233 µM | TGI (HCT-15 colon): > 100 µM | GI50 (CCRF-CEM leukemia): < 0.005 µM | TGI (CCRF-CEM leukemia): > 100 µM | GI50 (UO-31 renal): 0.0419 µM | TGI (UO-31 renal): > 100 µM | GI50 (MCF7 breast): < 0.005 µM | TGI (MCF7 breast): > 100 µM | GI50 (NCI-H23 lung): < 0.005 µM | TGI (NCI-H23 lung): > 50 µM | GI50 (HL-60(TB) leukemia): < 0.005 µM | TGI (HL-60(TB) leukemia): 0.00787 µM and < 0.01 µM | GI50 (SN12C renal): < 0.005 µM | TGI (SN12C renal): > 100 µM | TGI (MALME-3M melanoma): > 100 µM | GI50 (SR leukemia): < 0.005 µM | TGI (SR leukemia): > 100 µM | GI50 (SNB-75 CNS): < 0.005 µM | TGI (SNB-75 CNS): > 50 µM

C=C(CBr)CCCOCc1ccccc1
TGI (COLO 205 colon): 54 µM | TGI (UACC-62 melanoma): 47.2 µM | TGI (MOLT-4 leukemia): > 100 µM | TGI (HCT-116 colon): > 100 µM | TGI (NCI-H226 lung): 41.5 µM | TGI (M14 melanoma): 31.9 µM | TGI (NCI-H522 lung): 49.1 µM | TGI (SK-MEL-28 melanoma): > 100 µM | TGI (IGROV1 ovarian): 44.3 µM | TGI (SW-620 colon): > 100 µM | TGI (K-562 leukemia): > 100 µM | TGI (SK-MEL-2 melanoma): 38 µM | TGI (DU-145 prostate): > 100 µM | TGI (OVCAR-8 ovarian): 32.2 µM | TGI (CAKI-1 renal): 18.2 µM | TGI (HOP-62 NSCLC): 48.6 µM | TGI (HOP-92 NSCLC): 49.8 µM | TGI (A498 renal): > 100 µM | TGI (RPMI-8226 leukemia): 64.7 µM | TGI (SK-MEL-5 melanoma): 35.9 µM | TGI (U251 CNS): > 100 µM | TGI (786-0 renal): > 100 µM | TGI (SF-539 CNS): 34.8 µM | TGI (OVCAR-4 ovarian): 38.2 µM | TGI (TK-10 renal): 36.3 µM | TGI (MDA-MB-435): 88.2 µM | TGI (SK-OV-3 ovarian): > 100 µM | TGI (KM12 colon): 33.7 µM | TGI (LOX IMVI melanoma): 92.9 µM | TGI (A549 NSCLC): > 100 µM | TGI (HT29 colon): 39.2 µM | TGI (BT-549 breast): 35.4 µM | TGI (NCI-H460 lung): 35.3 µM | TGI (OVCAR-3 ovarian): 37.6 µM | TGI (NCI/ADR-RES ovarian): 40 µM | TGI (EKVX NSCLC): 46.6 µM | TGI (PC-3 prostate): 39.8 µM | TGI (SNB-19 CNS): > 100 µM | TGI (ACHN renal): 27.3 µM | TGI (UACC-257 melanoma): > 100 µM | TGI (SF-295 CNS): > 100 µM | TGI (OVCAR-5 ovarian): 33.3 µM | TGI (T-47D breast): > 100 µM | TGI (SF-268 CNS): 32.5 µM | TGI (HCT-15 colon): 68.2 µM | TGI (CCRF-CEM leukemia): > 100 µM | TGI (UO-31 renal): 26.8 µM | TGI (MCF7 breast): 77.1 µM | TGI (NCI-H23 lung): 30.9 µM | TGI (HL-60(TB) leukemia): 72.6 µM | TGI (SN12C renal): 57.3 µM | TGI (MALME-3M melanoma): 41.7 µM | TGI (SR leukemia): 89.8 µM
